Results from US10189828B2, “1-methylpyrazole-piperazine compounds having multimodal activity against pain” (LABORATORIOS DEL DR. ESTEVE S.A., priority 2014, dated 2019).

System: human σ1 receptor and human μ-opioid receptor
Experiment: μ and σ1 dual binding: human σ1 receptor radioligand assay ([3H](+)-pentazocine, transfected HEK-293 membranes) and human μ-opioid receptor radioligand assay ([3H]-DAMGO, transfected CHO-K1 membranes)
Parameters: key to μ and σ1 dual binding: +: Both Ki-μ and Ki-σ1>=500 nM; ++: One Ki<500 nM while the other Ki is >=500 nM; +++: Both Ki-μ and Ki-σ1<500 nM; ++++: Both Ki-μ and Ki-σ1<100 nM
Conditions: not given

Question: For Cn1nccc1C(c1ccc(F)cn1)N1CCN(CCc2ncccc2Cl)CC1 (centres unmarked) [Example 43, 1-(2-(3-chloropyridin-2-yl)ethyl)-4-((5-fluoropyridin-2-yl)(1-methyl-1H-pyrazol-5-yl)methyl)piperazine], which “μ and σ1 dual binding” value is on record?
Answer: ++

Question: Cn1nccc1C(c1ccccc1)N1CCN(CCc2ccccc2)CC1 (centres unmarked) [Example 3, 1-((1-methyl-1H-pyrazol-5-yl)(phenyl)methyl)-4-phenethylpiperazine] was tested. Which Ki did it give?
Answer: < 100 nM

Question: How did the Ki turn out when Cn1nccc1C(c1ccccc1)N1CCN(CCc2cccc(F)c2)CC1 (centres unmarked) [Example 35, 1-(3-Fluorophenethyl)-4-((1-methyl-1H-pyrazol-5-yl)(phenyl)methyl)piperazine] was run?
Answer: < 500 nM

Question: Cn1nccc1C(c1ccccc1)N1CCN(CCc2ccncc2)CC1 (centres unmarked) [Example 37, 1-((1-methyl-1H-pyrazol-5-yl)(phenyl)methyl)-4-(2-(pyridin-4-yl)ethyl)piperazine] was tested. Which “μ and σ1 dual binding” value did it give?
Answer: ++

Question: Which “μ and σ1 dual binding” value does the source give for Cn1nccc1C(c1cccnc1)N1CCN(CCc2ccccc2)CC1 (centres unmarked) [Example 5, 1-((1-methyl-1H-pyrazol-5-yl)(pyridin-3-yl)methyl)-4-phenethylpiperazine] here?
Answer: ++

Question: For Cn1nccc1C(c1ccccc1)N1CCN(CCc2ncccc2Cl)CC1 (centres unmarked) [Example 41, 1-(2-(3-chloropyridin-2-yl)ethyl)-4-((1-methyl-1H-pyrazol-5-yl)(phenyl)methyl)piperazine], which “μ and σ1 dual binding” value is on record?
Answer: ++

Question: With Cn1nccc1C(c1ccccc1)N1CCN(CCc2ccccc2F)CC1 (centres unmarked) [Example 22, 1-(2-fluorophenethyl)-4-((1-methyl-1H-pyrazol-5-yl)(phenyl)methyl)piperazine] as the compound, how does the Ki read?
Answer: < 100 nM

Question: Which “μ and σ1 dual binding” value does the source give for Cn1nccc1C(c1ccccn1)N1CCN(CCc2ccccc2)CC1 (centres unmarked) [Example 4, 1-((1-methyl-1H-pyrazol-5-yl)(pyridin-2-yl)methyl)-4-phenethylpiperazine] here?
Answer: ++

Question: For Cn1nccc1C(c1ccc(F)cn1)N1CCN(CCc2cccc(F)c2)CC1 (centres unmarked) [Example 38, 1-(3-fluorophenethyl)-4-((5-fluoropyridin-2-yl)(1-methyl-1H-pyrazol-5-yl)methyl)piperazine], which Ki is on record?
Answer: < 500 nM

Question: For Cn1nccc1C(c1ccccc1)N1CCN(CCc2ccccn2)CC1 (centres unmarked) [Example 1, 1-((1-Methyl-1H-pyrazol-5-yl)(phenyl)methyl)-4-(2-(pyridin-2-yl)ethyl)piperazine], which “μ and σ1 dual binding” value is on record?
Answer: ++

Question: Which “μ and σ1 dual binding” value does the source give for COc1cccc(CCN2CCN(C(c3ccc(F)cn3)c3ccnn3C)CC2)c1 (centres unmarked) [Example 27, 1-((5-fluoropyridin-2-yl)(1-methyl-1H-pyrazol-5-yl)methyl)-4-(3-methoxyphenethyl)piperazine] here?
Answer: ++

Question: Which “μ and σ1 dual binding” value does the source give for Cn1nccc1C(c1cncc(F)c1)N1CCN(CCc2ccccc2)CC1 (centres unmarked) [Example 13, 1-((5-fluoropyridin-3-yl)(1-methyl-1H-pyrazol-5-yl)methyl)-4-phenethylpiperazine] here?
Answer: ++

Question: For Cn1nccc1C(c1cccnc1C(F)(F)F)N1CCN(CCc2ccccc2)CC1 (centres unmarked) [Example 17, 1-((1-methyl-1H-pyrazol-5-yl)(2-(trifluoromethyl)pyridin-3-yl)methyl)-4-phenethylpiperazine], which Ki is on record?
Answer: < 500 nM

Question: For Cn1nccc1C(c1ncccc1F)N1CCN(CCc2ccccc2)CC1 (centres unmarked) [Example 16, 1-((3-fluoropyridin-2-yl)(1-methyl-1H-pyrazol-5-yl)methyl)-4-phenethylpiperazine], which “μ and σ1 dual binding” value is on record?
Answer: ++

Question: Which “μ and σ1 dual binding” value does the source give for Cn1nccc1C(c1ccccc1)N1CCN(CCc2ccccc2O)CC1 (centres unmarked) [Example 28, 2-(2-(4-((1-Methyl-1H-pyrazol-5-yl)(phenyl)methyl)piperazin-1-yl)ethyl)phenol] here?
Answer: ++

Question: How did the “μ and σ1 dual binding” value turn out when Cn1nccc1C(c1ccncc1)N1CCN(CCc2ccccc2)CC1 (centres unmarked) [Example 20, 1-((1-methyl-1H-pyrazol-5-yl)(pyridin-4-yl)methyl)-4-phenethylpiperazine] was run?
Answer: ++

Question: For COc1ccccc1C(c1ccnn1C)N1CCN(CCc2ccccc2)CC1 (centres unmarked) [Example 8, 1-((2-methoxyphenyl)(1-methyl-1H-pyrazol-5-yl)methyl)-4-phenethylpiperazine], which Ki is on record?
Answer: < 500 nM

Question: For COc1ccc(C(c2ccnn2C)N2CCN(CCc3ccccc3)CC2)cc1 (centres unmarked) [Example 9, 1-((4-methoxyphenyl)(1-methyl-1H-pyrazol-5-yl)methyl)-4-phenethylpiperazine], which Ki is on record?
Answer: < 500 nM

Question: With Cn1nccc1C(c1ccc(Cl)cn1)N1CCN(CCc2ccccc2)CC1 (centres unmarked) [Example 18, 1-((5-chloropyridin-2-yl)(1-methyl-1H-pyrazol-5-yl)methyl)-4-phenethylpiperazine] as the compound, how does the “μ and σ1 dual binding” value read?
Answer: ++

Question: Cn1nccc1C(c1ccccc1)N1CCN(CCc2ccc(F)cc2)CC1 (centres unmarked) [Example 23, 1-(4-fluorophenethyl)-4-((1-methyl-1H-pyrazol-5-yl)(phenyl)methyl)piperazine] was tested. Which “μ and σ1 dual binding” value did it give?
Answer: ++

Question: With COc1cccc(CCN2CCN(C(c3ccccc3)c3ccnn3C)CC2)c1 (centres unmarked) [Example 21, 1-(3-Methoxyphenethyl)-4-((1-methyl-1H-pyrazol-5-yl)(phenyl)methyl)piperazine] as the compound, how does the Ki read?
Answer: < 500 nM

Question: Cn1nccc1C(c1cccc(O)c1)N1CCN(CCc2ccccc2)CC1 (centres unmarked) [Example 29, 3-((1-methyl-1H-pyrazol-5-yl)(4-phenethylpiperazin-1-yl)methyl)phenol] was tested. Which Ki did it give?
Answer: < 500 nM

Question: How did the “μ and σ1 dual binding” value turn out when Cn1nccc1C(c1ccc(C(F)(F)F)nc1)N1CCN(CCc2ccccc2)CC1 (centres unmarked) [Example 11, 1-((1-methyl-1H-pyrazol-5-yl)(6-(trifluoromethyl)pyridin-3-yl)methyl)-4-phenethylpiperazine] was run?
Answer: ++

Question: With Cn1nccc1C(c1cnccc1C(F)(F)F)N1CCN(CCc2ccccc2)CC1 (centres unmarked) [Example 19, 1-((1-methyl-1H-pyrazol-5-yl)(4-(trifluoromethyl)pyridin-3-yl)methyl)-4-phenethylpiperazine] as the compound, how does the “μ and σ1 dual binding” value read?
Answer: ++

Question: Which Ki does the source give for Cn1nccc1C(c1ccc(F)cn1)N1CCN(CCc2ccccc2)CC1 (centres unmarked) [Example 12, 1-((5-fluoropyridin-2-yl)(1-methyl-1H-pyrazol-5-yl)methyl)-4-phenethylpiperazine] here?
Answer: < 500 nM

Question: Which “μ and σ1 dual binding” value does the source give for Cn1nccc1C(c1ccc(F)cn1)N1CCN(CCc2cccc(O)c2)CC1 (centres unmarked) [Example 31, 3-(2-(4-((5-fluoropyridin-2-yl)(1-methyl-1H-pyrazol-5-yl)methyl)piperazin-1-yl)ethyl)phenol] here?
Answer: ++

Question: For Cn1nccc1C(c1ccc(C(F)(F)F)cn1)N1CCN(CCc2ccccc2)CC1 (centres unmarked) [Example 14, 1-((1-methyl-1H-pyrazol-5-yl)(5-(trifluoromethyl)pyridin-2-yl)methyl)-4-phenethylpiperazine], which “μ and σ1 dual binding” value is on record?
Answer: ++

Question: How did the Ki turn out when COc1cccc(C(c2ccnn2C)N2CCN(CCc3ccccc3)CC2)c1 (centres unmarked) [Example 7, 1-((3-methoxyphenyl)(1-methyl-1H-pyrazol-5-yl)methyl)-4-phenethylpiperazine] was run?
Answer: < 100 nM

Question: For Cn1nccc1C(c1ccccc1)N1CCN(Cc2ccccc2)CC1 (centres unmarked) [Example 2, 1-benzyl-4-((1-methyl-1H-pyrazol-5-yl)(phenyl)methyl)piperazine], which “μ and σ1 dual binding” value is on record?
Answer: ++

Question: How did the Ki turn out when Cn1nccc1C(c1ccccc1)N1CCN(CCc2cccc(O)c2)CC1 (centres unmarked) [Example 30, 3-(2-(4-((1-methyl-1H-pyrazol-5-yl)(phenyl)methyl)piperazin-1-yl)ethyl)phenol] was run?
Answer: < 100 nM

Question: How did the “μ and σ1 dual binding” value turn out when Cn1nccc1C(c1ccccc1)N1CCN(CC(O)c2ccccc2)CC1 (centres unmarked) [Example 39, 2-(4-((1-Methyl-1H-pyrazol-5-yl)(phenyl)methyl)piperazin-1-yl)-1-phenylethanol] was run?
Answer: ++

Same assay, conditions: one combined class for Ki-μ and Ki-σ1

Question: Cn1nccc1C(c1ccccc1)N1CCN(CCc2ccc(C(F)(F)F)nc2)CC1 (centres unmarked) [Example 24, 1-((1-methyl-1H-pyrazol-5-yl)(phenyl)methyl)-4-(2-(6-(trifluoromethyl)pyridin-3-yl)ethyl)piperazine] was tested. Which Ki did it give?
Answer: ≥ 500 nM

Question: How did the Ki turn out when Cn1nccc1C(c1ccccc1)N1CCN(CCc2cccc(C(F)(F)F)n2)CC1 (centres unmarked) [Example 42, 1-((1-methyl-1H-pyrazol-5-yl)(phenyl)methyl)-4-(2-(6-(trifluoromethyl)pyridin-2-yl)ethyl)piperazine] was run?
Answer: ≥ 500 nM

Question: How did the Ki turn out when Cn1nccc1C(c1ccccc1)N1CCN(CCc2cccc(NS(C)(=O)=O)n2)CC1 (centres unmarked) [Example 44, N-(6-(2-(4-((1-methyl-1H-pyrazol-5-yl)(phenyl)methyl)piperazin-1-yl)ethyl)pyridin-2-yl)methanesulfonamide] was run?
Answer: ≥ 500 nM

Question: With Cn1nccc1C(c1ccc(F)cn1)N1CCN(CCc2ccccn2)CC1 (centres unmarked) [Example 15, 1-((5-fluoropyridin-2-yl)(1-methyl-1H-pyrazol-5-yl)methyl)-4-(2-(pyridin-2-yl)ethyl)piperazine] as the compound, how does the Ki read?
Answer: ≥ 500 nM

Question: For Cn1nccc1C(c1ccccc1)N1CCN(CCc2csc(N)n2)CC1 (centres unmarked) [Example 32, 4-(2-(4-((1-Methyl-1H-pyrazol-5-yl)(phenyl)methyl)piperazin-1-yl)ethyl)thiazol-2-amine], which Ki is on record?
Answer: ≥ 500 nM

Question: For COc1ccccc1CCN1CCN(C(c2ccccc2)c2ccnn2C)CC1 (centres unmarked) [Example 6, 1-(2-methoxyphenethyl)-4-((1-methyl-1H-pyrazol-5-yl)(phenyl)methyl)piperazine], which Ki is on record?
Answer: ≥ 500 nM

Question: Which Ki does the source give for Cn1nccc1C(c1ccccc1)N1CCN(CCc2ccc(F)cn2)CC1 (centres unmarked) [Example 34, 1-(2-(5-fluoropyridin-2-yl)ethyl)-4-((1-methyl-1H-pyrazol-5-yl)(phenyl)methyl)piperazine] here?
Answer: ≥ 500 nM

Question: How did the Ki turn out when Cn1nccc1C(c1ccccc1)N1CCN(CCc2cccnc2)CC1 (centres unmarked) [Example 36, 1-((1-methyl-1H-pyrazol-5-yl)(phenyl)methyl)-4-(2-(pyridin-3-yl)ethyl)piperazine] was run?
Answer: ≥ 500 nM

Question: For Cn1nccc1C(c1ccccc1)N1CCN(CCc2cccc(N(S(C)(=O)=O)S(C)(=O)=O)n2)CC1 (centres unmarked) [Example 45, N-(6-(2-(4-((1-methyl-1H-pyrazol-5-yl)(phenyl)methyl)piperazin-1-yl)ethyl)pyridin-2-yl)-N-(methylsulfonyl)methanesulfonamide], which Ki is on record?
Answer: ≥ 500 nM

Question: With Cn1nccc1C(c1ccccc1)N1CCN(CCc2ncccc2F)CC1 (centres unmarked) [Example 33, 1-(2-(3-Fluoropyridin-2-yl)ethyl)-4-((1-methyl-1H-pyrazol-5-yl)(phenyl)methyl)piperazine] as the compound, how does the Ki read?
Answer: ≥ 500 nM
